These results are taken from patent publication US10213464B2, “Method for enhancing engraftment of haematopoetic stem cells” (SCIPHARM SARL, priority 2011, dated 2019).

For assay [1], the system named is (Lin−, c-Kit+, Sca-1+) haematopoetic stem cells. Nature of the assay: [3H]cAMP accumulation assay in haematopoetic stem cells. It is filed as cell-based, mouse. Conditions: for cAMP accumulation, compound per se: without forskolin, FIG. 4, FIG. 5. As to the method:
Ten mice (C57BL/6) were sacrificed by cervical dislocation. The long bones of the hind limbs (i.e., femora and tibiae) were freed of muscle and connective tissue and flushed with RPMI medium using a syringe and 27½ G needle. The cell suspension was freed from visible connective tissue, collected and transferred to centrifuge tubes. Cells were harvested by centrifugation (1,200 rpm/˜100 g for 5 min) and resuspended in 3 mL erythrocyte lysis buffer (0.15 M NH4Cl, 10 mM KHCO3, 0.1 mM EDTA, pH adjusted to 7.2 to 7.4). The cell suspension was incubated for 2 min at 20° C. followed by 4 min on ice. Thereafter, RPMI (10 mL) was added and the cells were harvested by centrifugation and counted. […] Cells were resuspended in ice-cold PBS (phosphate buffered saline) containing 2% FCS (fetal calf serum) at a cell density of 2.5*10^8 cells/mL to which a cocktail of biotinylated antibodies (“Lineage Cell Depletion Kit” of Miltenyi Biotec) containing lineage-specific antibodies directed against CD5, CD45R (B220), CD11b, GR-1 (=Ly-6G/C), 7-4, and Ter-119 at a ratio of 0.1 mL antibody solution per 10^8 cells. Cells were incubated for 20 min on ice with the antibodies and pelleted by centrifugation. […] Thereafter, the sample was diluted in MACS-buffer (30 mL), the cells were collected by centrifugation and resuspended in 6 mL of MACS-buffer. This suspension was loaded onto prepacked LS columns, which contain ferromagnetic beads coated with a cell-compatible plastic material. Typically three columns were employed for (2 mL cells suspension/column). The flow-through contained the lineage marker-negative cells (Lin^− cells), while the lineage committed cells were retained on the column. Cells were pelleted by centrifugation and resuspended in […]. Lin^−/sca1^+-cells were incubated in 1 mL of stem cell medium (Stem Span SFEM, Stem Cell Tech #09650) containing 0.5 mg/L each, benzylpenicillin and streptomycin, 50 ng/mL each murine stem cell factor (mSCF), human Flt-3, hIL-11 50 ng/mL, m-IL3 (10 ng/mL) (all from PreProTech) 10 μg/mL adenosine deaminase (Roche) and [^3H]adenine (Perkin Elmer, 1 μCi/mL). The preincubation lasted for 4 h at 37° C. […] The cells were then pelleted (5 min at 100 g), the medium was removed and the pellet was lysed in ice-cold 2.5% perchloric acid (0.9 mL) containing 0.1 mM cAMP, held on ice for 1 h and neutralized with 4.2 M KOH (0.1 mL)). Lineage marker-positive cells were preincubated in a similar manner but the medium contained RMPI instead of serum-free stem cell medium. ATP and cAMP were separated by sequential chromatography on columns containing Dowex AG50-X8 and neutral alumina (12). The fact that differences can only be seen in the presence of forskolin is a technical problem—the signal is too low in the absence of forskolin-sensitization to see any differences between the different compounds, i.e. ilo-, beraprost and treprostinil. Sensitization means that cells are sensitized for receptor response as these cells contain extremely low cAMP.
On the technique in general: Cyclic AMP is a second messenger, typically raised through Gs and lowered through Gi signalling.

In another assay the target is EP4-receptors (Homo sapiens, UniProt P35408). The settings on record: reference 10; cited from earlier work.
For assay [2], the system named is Lin− (Sca1+ and c-Kit+) haematopoetic stem cells. Nature of the assay: Bone marrow transplantation: reconstitution of bone marrow in lethally irradiated mice by ex vivo pretreated stem cells. Conditions: FIG. 6.
In the next assay the target is EP2-receptors (Homo sapiens, UniProt P43116). Conditions: reference 10; cited from earlier work.
For a further assay, the target named is T1, EP3-receptors (Homo sapiens, UniProt P43115).
T1 sequence (P43115 1-390): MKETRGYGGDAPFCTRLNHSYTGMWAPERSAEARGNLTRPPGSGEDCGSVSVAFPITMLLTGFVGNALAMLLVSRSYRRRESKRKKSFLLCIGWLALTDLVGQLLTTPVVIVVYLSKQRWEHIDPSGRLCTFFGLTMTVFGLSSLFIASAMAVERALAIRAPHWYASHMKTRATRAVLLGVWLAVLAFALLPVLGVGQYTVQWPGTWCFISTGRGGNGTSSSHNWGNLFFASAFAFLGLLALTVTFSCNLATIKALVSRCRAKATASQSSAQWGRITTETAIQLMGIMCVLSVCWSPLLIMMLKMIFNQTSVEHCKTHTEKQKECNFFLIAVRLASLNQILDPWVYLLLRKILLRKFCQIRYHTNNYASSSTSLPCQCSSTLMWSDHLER
The settings on record: Gi-coupled, inhibit cAMP accumulation; cited from earlier work.

The test system of assay [3] is Lin+ haematopoetic cell fraction. Description: [3H]cAMP accumulation assay in lineage marker-positive cells. It is filed as cell-based, mouse. Conditions: data not shown. On the procedure: Ten mice (C57BL/6) were sacrificed by cervical dislocation. The long bones of the hind limbs (i.e., femora and tibiae) were freed of muscle and connective tissue and flushed with RPMI medium using a syringe and 27½ G needle. The cell suspension was freed from visible connective tissue, collected and transferred to centrifuge tubes. Cells were harvested by centrifugation (1,200 rpm/˜100 g for 5 min) and resuspended in 3 mL erythrocyte lysis buffer (0.15 M NH4Cl, 10 mM KHCO3, 0.1 mM EDTA, pH adjusted to 7.2 to 7.4). The cell suspension was incubated for 2 min at 20° C. followed by 4 min on ice. Thereafter, RPMI (10 mL) was added and the cells were harvested by centrifugation and counted. The typical yield of cells was 3*10^7/mouse. Cells were resuspended in ice-cold PBS (phosphate buffered saline) containing 2% FCS (fetal calf serum) at a cell density of 2.5*10^8 cells/mL to which a cocktail of biotinylated antibodies (“Lineage Cell Depletion Kit” of Miltenyi Biotec) containing lineage-specific antibodies directed against CD5, CD45R (B220), CD11b, GR-1 (=Ly-6G/C), 7-4, and Ter-119 at a ratio of 0.1 mL antibody solution per 10^8 cells. Cells were incubated for 20 min on ice with the antibodies and pelleted by centrifugation. […]

The test system of assay [4] is haematopoetic stem cells. Conditions: in vivo; cited from earlier work.
In assay [5] the test system is haematopoetic stem cells. The settings on record: references 7, 8; cited from earlier work.

Chain of EP2-receptors (P43116 whole entry): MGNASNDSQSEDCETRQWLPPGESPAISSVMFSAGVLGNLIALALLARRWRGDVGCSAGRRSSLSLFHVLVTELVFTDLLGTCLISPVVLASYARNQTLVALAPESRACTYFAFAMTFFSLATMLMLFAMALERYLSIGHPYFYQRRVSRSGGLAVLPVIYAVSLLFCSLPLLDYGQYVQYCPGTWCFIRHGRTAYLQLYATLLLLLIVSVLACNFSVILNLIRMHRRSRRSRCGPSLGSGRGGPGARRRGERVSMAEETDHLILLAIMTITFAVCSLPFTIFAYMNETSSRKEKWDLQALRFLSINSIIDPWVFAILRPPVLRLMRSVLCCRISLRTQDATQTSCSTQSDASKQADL
Chain of EP4-receptors (P35408 whole entry): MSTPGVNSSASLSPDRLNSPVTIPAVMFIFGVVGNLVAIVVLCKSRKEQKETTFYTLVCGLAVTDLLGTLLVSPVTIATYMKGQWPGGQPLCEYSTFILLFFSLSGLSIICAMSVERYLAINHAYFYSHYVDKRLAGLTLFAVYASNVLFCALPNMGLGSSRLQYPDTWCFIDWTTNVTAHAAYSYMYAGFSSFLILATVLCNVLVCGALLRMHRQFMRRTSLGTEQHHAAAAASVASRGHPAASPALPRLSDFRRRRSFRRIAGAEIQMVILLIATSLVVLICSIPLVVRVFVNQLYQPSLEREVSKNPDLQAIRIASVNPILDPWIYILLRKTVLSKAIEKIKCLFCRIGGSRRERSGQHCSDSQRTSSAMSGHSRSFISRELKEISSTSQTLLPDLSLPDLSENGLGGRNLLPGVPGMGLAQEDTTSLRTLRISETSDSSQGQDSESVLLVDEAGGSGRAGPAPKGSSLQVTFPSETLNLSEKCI

As for `CC#CCC(C)[C@H](O)/C=C/[C@@H]1[C@H]2C/C(=C/CCCC(=O)O)C[C@H]2C[C@H]1O` (stereo partly drawn) [Iloprost, 5-{(E)-(1S,5S,6R,7R)-7-hydroxy-6[(E)-(3S, 4RS)-3-hydroxy-4-methyl-1-octen-6-inyl]-bi-cyclo[3.3.0]octan-3-ylidene}pentanoic acid], the “cAMP accumulation, compound per se” value in assay [1] (stimulation 1 h) is recorded as “modest accumulation of cAMP”.
Same read-out and setting: under `CC#CCC(C)C(O)C=CC1C(O)CC2Oc3c(CCCC(=O)O)cccc3C21` (stereo not shown) [Beraprost, 2,3,3a,8b-tetrahydro-2-hydroxy-1-(3-hydroxy-4-methyl-1-octen-6-ynyl)-1H-cyclopenta(b)benzofuran-5-butanoic acid] stands “modest accumulation of cAMP”.
Turning to `CCCCC[C@H](O)CC[C@@H]1[C@H]2Cc3cccc(OCC(=O)[O-])c3C[C@H]2C[C@H]1O.[Na+]` [Treprostinil, (1R,2R,3aS,9aS)-[[2,3,3a,4,9,9a-hexahydro-2-hydroxy-1-[(3S)-3-hydroxyoctyl]-1H-benz[f]inden-5-yl]oxy]acetic acid monosodium salt], the “stimulation of EP4-receptors” value at EP4-receptors was “stimulates”. Further, the “level of circulating white blood cells” value in assay [2] (day 60 after injection of 3*10^5 cells pretreated ex vivo with 10 μM for 1 h at 37° C., versus vehicle-treated cells) is on record as “significantly higher levels of circulating white blood cells”. Also, the “effectiveness compared with positive control cholera toxin” value in assay [2] (ex vivo pretreatment, white blood cell count) is “as effective as the positive control cholera toxin”. For the same molecule, on EP2-receptors, the “stimulation of EP2-receptors” value is reported as “stimulates”. Besides, at EP3-receptors, the “agonism at EP3-receptors” value is “low affinity agonist”. In assay [1] (FIG. 5), the “concentration range of concentration-dependent accumulation of cAMP” value was 0.1 to 10 µM. Further, in assay [1] (Mus musculus, concentration-response curve, FIG. 5, read-out: estimated EC50 of cAMP accumulation), the 50% effective concentration (EC50) was approximately 0.3 µM. For the same molecule, the “increase in cAMP levels when combined with forskolin” value in assay [1] (combined with forskolin, stimulation 1 h, FIG. 4) is “exceeded that caused by the IP-(I prostanoid) receptor-specific compounds Iloprost and Beraprost”. In addition, the “cAMP accumulation, compound per se” value was “increase of cAMP is significant” in assay [1] (stimulation 1 h, listed as Trepostinil, monosodium salt) and “modest accumulation of cAMP” in assay [1] (stimulation 1 h, monosodium salt). The “cAMP levels in Lin+ cells” value in assay [3] is given as “failed to increase cAMP levels”.
Take cholera toxin: the “(Lin−) precursor cells in the bone marrow after pretreatment” value in the assay with haematopoetic stem cells [4] was “about twice as many”.
For the molecule `CCCCC(C)(C)[C@H](O)/C=C/[C@H]1[C@H](O)CC(=O)[C@@H]1C/C=C\CCCC(=O)O` [dimethyl-PGE2], the engraftment after pretreatment result with haematopoetic stem cells [5] is given as “enhances their engraftment”. Also, the “agonism at EP3-receptors” value at EP3-receptors was “full agonist”.

Broadly, the EC50 is the concentration at which the effect is half-maximal.
